The record followed here is US10253017B2, “Derivatives of 2-aminopyridine as adenosine A2B receptor antagonists and ligands of the melatonin MT3 receptors” (PALOBIOFARMA, S.L., priority 2015, dated 2019).

One experiment has as its target adenosine A2B receptor (Homo sapiens (Human), UniProt P29275). The experiment in a line: Adenosine A2B receptor subtype competition radioligand binding assay ([3H]DPCPX). The following applies: human recombinant receptor (HEK-293 cells), [3H]DPCPX radioligand; read-out: hA2B, Ki. An excerpt:
Adenosine A2B Receptor Subtype Competition Radioligand Binding Assay

The target of the next experiment is adenosine A2A receptor (Homo sapiens (Human), UniProt P29274). The experiment in a line: Adenosine A2A receptor binding (hA2A Ki).
Another experiment addresses MT3 melatonin receptor (Mesocricetus auratus, UniProt A0ABM2YAB8). As to the kind of experiment: Binding to melatonin MT3 binding sites ([125I]2-iodomelatonin, hamster brain membranes). The following applies: [125I]2-iodomelatonin radioligand. How it is done:
Study of Binding to Melatonin MT3 Binding Sites
The experiment of binding to MT3 sites was carried out on hamster brain membranes using [^125I]2-iodomelatonin as radioligand in accordance with the protocol described by Pickering, D. S et al. (Pickering, D. S et al, 1990, Pharmacological characterization of melatonin binding sites in Syrian hamster hypothalamus, Eur J Pharmacol. 1990 Jan. 3; 175(1):71-7).

Bounds are passed on as bounds.

Chain of MT3 melatonin receptor (A0ABM2YAB8 1-231): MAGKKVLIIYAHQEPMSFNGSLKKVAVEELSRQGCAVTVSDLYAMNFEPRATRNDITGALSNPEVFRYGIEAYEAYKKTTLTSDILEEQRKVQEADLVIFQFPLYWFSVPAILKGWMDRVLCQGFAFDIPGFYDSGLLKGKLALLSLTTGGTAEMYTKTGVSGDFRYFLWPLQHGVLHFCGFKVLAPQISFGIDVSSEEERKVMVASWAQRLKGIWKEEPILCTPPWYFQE
Chain of adenosine A2B receptor (P29275 whole entry): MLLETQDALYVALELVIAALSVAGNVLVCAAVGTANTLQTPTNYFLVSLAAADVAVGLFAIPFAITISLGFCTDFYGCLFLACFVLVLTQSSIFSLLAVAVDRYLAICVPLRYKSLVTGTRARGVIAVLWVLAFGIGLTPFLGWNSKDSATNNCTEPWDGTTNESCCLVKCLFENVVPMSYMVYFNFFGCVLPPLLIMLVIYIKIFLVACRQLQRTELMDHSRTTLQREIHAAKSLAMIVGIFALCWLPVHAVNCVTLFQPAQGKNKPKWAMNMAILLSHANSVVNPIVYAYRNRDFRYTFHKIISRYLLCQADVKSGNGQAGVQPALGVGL
Chain of adenosine A2A receptor (P29274 whole entry): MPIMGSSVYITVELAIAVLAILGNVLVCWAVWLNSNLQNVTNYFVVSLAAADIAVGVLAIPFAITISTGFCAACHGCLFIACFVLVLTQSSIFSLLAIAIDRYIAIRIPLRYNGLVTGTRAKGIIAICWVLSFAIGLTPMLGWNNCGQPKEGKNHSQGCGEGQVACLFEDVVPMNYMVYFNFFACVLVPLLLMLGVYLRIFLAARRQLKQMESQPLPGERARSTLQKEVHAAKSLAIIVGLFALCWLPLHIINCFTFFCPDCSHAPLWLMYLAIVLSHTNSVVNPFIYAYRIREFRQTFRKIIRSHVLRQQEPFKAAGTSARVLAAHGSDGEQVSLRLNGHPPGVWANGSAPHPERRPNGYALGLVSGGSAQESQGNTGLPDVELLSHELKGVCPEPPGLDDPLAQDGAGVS

As to `Nc1ccc(-c2ccncc2F)c(-c2ccncc2)n1` [Example 11, 5-(3-fluoropyridin-4-yl)-6-(pyridin-4-yl)pyridin-2-amine], the Ki was 0.149 µM on adenosine A2B receptor and more than 5 µM at adenosine A2A receptor.
In the case of `Nc1nc(-c2cccnc2)c(-c2ccncc2)cc1Cl` [Example 21, 3-chloro-6-(pyridin-3-yl)-5-(pyridin-4-yl)pyridin-2-amine], the Ki worked out at 0.0345 µM on adenosine A2B receptor and 0.5 µM on adenosine A2A receptor. The same compound displayed an IC50 at MT3 melatonin receptor of 0.13 µM.
`Nc1nc(-c2cccnc2)c(-c2ccncc2)cc1Br` [Example 22, 3-bromo-6-(pyridin-3-yl)-5-(pyridin-4-yl)pyridin-2-amine]: the figures for the Ki at adenosine A2B receptor and on adenosine A2A receptor were 0.0461 µM and 0.3 µM, respectively. Besides, the IC50 at MT3 melatonin receptor came out at 0.14 µM.
For `Nc1nc(-c2cccnc2)c(-c2ccncc2F)cc1Cl` [Example 23, 3-chloro-5-(3-fluoropyridin-4-yl)-6-(pyridin-3-yl)pyridin-2-amine] the same measures were 0.0239 µM, 4.8 µM and 0.098 µM.
With `Nc1nc(-c2cccnc2)c(-c2ccncc2F)cc1Br` [Example 24, 3-bromo-5-(3-fluoropyridin-4-yl)-6-(pyridin-3-yl)pyridin-2-amine], the Ki at adenosine A2B receptor was 0.037 µM; at adenosine A2A receptor it was more than 5 µM.
For the compound `Nc1nc(-c2cncc(F)c2)c(-c2ccncc2F)cc1Cl` [Example 27, 3-chloro-6-(5-fluoropyridin-3-yl)-5-(3-fluoropyridin-4-yl)pyridin-2-amine], the Ki is 0.15 µM at adenosine A2B receptor and more than 5 µM on adenosine A2A receptor. On MT3 melatonin receptor, this compound had an IC50 of 0.25 µM.
For `Nc1nc(-c2ccncc2)c(-c2ccncc2F)cc1Cl` [Example 34, 3-chloro-5-(3-fluoropyridin-4-yl)-6-(pyridin-4-yl)pyridin-2-amine], the Ki at adenosine A2B receptor was 0.012 µM; at adenosine A2A receptor it was 0.555 µM.
Turning to `Nc1nc(-c2ccncc2)c(-c2ccncc2F)cc1Br` [Example 35, 3-bromo-5-(3-fluoropyridin-4-yl)-6-(pyridin-4-yl)pyridin-2-amine], the figures for the Ki at adenosine A2B receptor and at adenosine A2A receptor were 0.013 µM and 1.3 µM, respectively.
On to `COc1ccc(-c2nc(N)c(Cl)cc2-c2ccncc2F)cn1` [Example 36, 3-chloro-5-(3-fluoropyridin-4-yl)-6-(6-methoxypyridin-3-yl)pyridin-2-amine], for which the Ki was 0.024 µM on adenosine A2B receptor and more than 5 µM at adenosine A2A receptor.

As usually defined, the Ki is a measure of affinity in units of concentration, obtained from inhibition or displacement. A word on the IC50: it is the concentration at which inhibition is half-maximal. Read a low IC50 as greater potency.
